Experimental findings from PubChem BioAssay (NCI) are described below.

Molecules are shown by their SMILES.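 Each compound was tested at five concentrations against cells in 96-well plates for 48 hours. TGI is the concentration that stops growth completely.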 Where only a bound is given, the exact number is not on record here.

Among the test systems are OVCAR-8 ovarian; U251 CNS; COLO 205 colon; SN12C renal; CCRF-CEM leukemia; TK-10 renal; SF-539 CNS; A549 NSCLC; SK-MEL-2 melanoma; BT-549 breast; SR leukemia; SF-295 CNS; HS 578T breast; SNB-75 CNS; LOX IMVI melanoma; HCC-2998 colon; SW-620 colon.
What all share (experiment): inhibition of tumour cell growth, NCI panel, 48 h

For `O=C1N[C@H]2C(=O)c3c(Br)sc(Br)c3[C@H]2O1`, the TGI with OVCAR-8 ovarian was 13 µM; in the assay on U251 CNS, 8.87 µM; in the assay with COLO 205 colon, 8.17 µM; in the assay with SN12C renal, 11.4 µM; in the assay on CCRF-CEM leukemia, 3.63 µM; in the assay on TK-10 renal, 41 µM. Also, the TGI worked out at 32.1 µM in the assay on SF-539 CNS; 40.4 µM in the assay with A549 NSCLC; 31.9 µM in the assay on SK-MEL-2 melanoma; 28.3 µM in the assay with BT-549 breast; 6.27 µM in the assay on SR leukemia; 37 µM with SF-295 CNS. For the same compound, the TGI with HS 578T breast was found to be 58.6 µM; in the assay on SNB-75 CNS, 31.4 µM; in the assay on LOX IMVI melanoma it was 11.4 µM; in the assay on HCC-2998 colon it was 24.2 µM; in the assay with SW-620 colon, 4.76 µM.
As to `COC(=O)C1(Cc2ccccc2)Cc2ccccc2C1O` (configuration not stated), the TGI with OVCAR-8 ovarian, with U251 CNS, in the assay with COLO 205 colon, with SN12C renal, in the assay on CCRF-CEM leukemia and with TK-10 renal was above 100 µM in each case. Also, the TGI in the assay with SF-539 CNS, with A549 NSCLC, with BT-549 breast, in the assay on SR leukemia, in the assay with SF-295 CNS and in the assay with HS 578T breast was above 100 µM each time. Also, the TGI with SNB-75 CNS, in the assay on LOX IMVI melanoma, in the assay on HCC-2998 colon and in the assay with SW-620 colon was above 100 µM each time.
As for `Cc1cc(C)c2c(=O)n(CC(O)CN(Cc3ccccc3)CC(O)Cn3sc4nc(C)cc(C)c4c3=O)sc2n1` (configuration not stated), the TGI is 34.5 µM in the assay with OVCAR-8 ovarian; 30.6 µM with U251 CNS; 21.3 µM with COLO 205 colon; 32.7 µM with SN12C renal; above 100 µM in the assay with CCRF-CEM leukemia; 31.5 µM in the assay on TK-10 renal. The TGI was 32 µM with SF-539 CNS; 40.7 µM in the assay with A549 NSCLC; 33.1 µM with SK-MEL-2 melanoma; 38.3 µM in the assay on BT-549 breast; above 100 µM in the assay on SR leukemia; 61.9 µM in the assay on SF-295 CNS. The TGI in the assay with HS 578T breast is 40.4 µM; in the assay with SNB-75 CNS, 28.9 µM; with LOX IMVI melanoma it was 33.9 µM; in the assay with HCC-2998 colon, 35.7 µM; in the assay with SW-620 colon, above 100 µM.
On to `O=c1[nH]c2nc3ccccc3c(=O)n2/c1=C/c1ccccc1`, for which the TGI is above 100 µM in the assay with OVCAR-8 ovarian; above 100 µM in the assay on U251 CNS; above 100 µM in the assay on COLO 205 colon; 83.8 µM in the assay with SN12C renal; above 100 µM with CCRF-CEM leukemia; above 100 µM in the assay on TK-10 renal. Also, the TGI in the assay with SF-539 CNS was 44.9 µM; in the assay with A549 NSCLC, above 100 µM; in the assay with SK-MEL-2 melanoma it was above 100 µM; with BT-549 breast it was 53.8 µM; in the assay with SR leukemia, above 100 µM; with SF-295 CNS, above 100 µM. Also, the TGI with HS 578T breast was above 100 µM; in the assay with SNB-75 CNS, 99.4 µM; in the assay on LOX IMVI melanoma, above 100 µM; with HCC-2998 colon, above 100 µM; with SW-620 colon it was 47.6 µM.
On to `O=C(CCN1CCCCC1)Nc1ccc2c(c1)C(=O)c1ccc(NC(=O)CCN3CCCCC3)cc1C2=O`, for which the TGI with OVCAR-8 ovarian is 13.7 µM; in the assay on U251 CNS, 9.97 µM; with COLO 205 colon it was 24 µM; with SN12C renal, 18 µM; in the assay with CCRF-CEM leukemia it was 11.1 µM; in the assay with TK-10 renal, 21.2 µM. For the same compound, the TGI in the assay on SF-539 CNS worked out at 7.13 µM; in the assay with A549 NSCLC it was 10.3 µM; in the assay with SK-MEL-2 melanoma, 9.92 µM; in the assay on BT-549 breast it was 27.8 µM; with SR leukemia, 6.49 µM; in the assay with SF-295 CNS, 10.4 µM. Moreover, the TGI in the assay on HS 578T breast came to 26.2 µM; in the assay with SNB-75 CNS, 8 µM; in the assay on LOX IMVI melanoma it was 3.43 µM; in the assay on HCC-2998 colon, 13.5 µM; in the assay on SW-620 colon it was 4.62 µM.
As to `Cn1c(=O)c2c(nc3n2CCCC(=O)N3CCCCl)n(C)c1=O`, the TGI in the assay on OVCAR-8 ovarian, with U251 CNS, in the assay with COLO 205 colon, with SN12C renal, with CCRF-CEM leukemia and with TK-10 renal was above 100 µM each time. In addition, the TGI in the assay with A549 NSCLC, with SK-MEL-2 melanoma, with BT-549 breast, in the assay with SR leukemia, in the assay on SF-295 CNS and in the assay on HS 578T breast was above 100 µM each time. Moreover, the TGI with SNB-75 CNS, with LOX IMVI melanoma, with HCC-2998 colon and in the assay on SW-620 colon was above 100 µM in each case.
With `Cc1n[nH]c(=O)n1C1CC1`, the TGI in the assay on OVCAR-8 ovarian, in the assay on U251 CNS, in the assay on COLO 205 colon, in the assay on SN12C renal, with CCRF-CEM leukemia and in the assay with SF-539 CNS was above 100 µM throughout. Also, the TGI in the assay on A549 NSCLC, with BT-549 breast, with SR leukemia, in the assay on SF-295 CNS, in the assay with HS 578T breast and in the assay with SNB-75 CNS was above 100 µM each time. Moreover, the TGI with LOX IMVI melanoma, in the assay with HCC-2998 colon and in the assay with SW-620 colon was above 100 µM in each case.
For `Cn1cc(NC(=O)Nc2cc(C(=O)Nc3cc(C(=O)Nc4ccc5cc(S(=O)(=O)O)cc(S(=O)(=O)O)c5c4)n(C)c3)n(C)c2)cc1C(=O)Nc1cc(C(=O)Nc2ccc3cc(S(=O)(=O)O)cc(S(=O)(=O)O)c3c2)n(C)c1`, the TGI in the assay on OVCAR-8 ovarian, in the assay on U251 CNS, in the assay with COLO 205 colon, with SN12C renal, in the assay with CCRF-CEM leukemia and in the assay with TK-10 renal was above 100 µM in each case. Besides, the TGI in the assay on SF-539 CNS, with A549 NSCLC, with BT-549 breast, with SR leukemia, with SF-295 CNS and in the assay on HS 578T breast was above 100 µM throughout. Moreover, the TGI in the assay with SNB-75 CNS, in the assay with LOX IMVI melanoma, in the assay on HCC-2998 colon and in the assay on SW-620 colon was above 100 µM throughout.
With `COC(=O)CN(CC(=O)NCCNC(=O)OC(C)(C)C)C1CCCCC1N(CC(=O)OC)CC(=O)OC` (configuration not stated), the TGI in the assay on OVCAR-8 ovarian, in the assay with U251 CNS, in the assay with COLO 205 colon, in the assay with SN12C renal, with CCRF-CEM leukemia and in the assay with TK-10 renal was above 100 µM each time. The TGI in the assay on SF-539 CNS, in the assay with A549 NSCLC, with SK-MEL-2 melanoma, in the assay with BT-549 breast, in the assay on SR leukemia and in the assay with SF-295 CNS was above 100 µM in each case. The TGI in the assay on HS 578T breast, with LOX IMVI melanoma, with HCC-2998 colon and in the assay with SW-620 colon was above 100 µM throughout.
